Experimental data: paper PMC12102218 (Nature Communications, 2025)

Biological target: T1, ENPP1 (Homo sapiens, UniProt P22413)
T1 sequence (P22413 1-925): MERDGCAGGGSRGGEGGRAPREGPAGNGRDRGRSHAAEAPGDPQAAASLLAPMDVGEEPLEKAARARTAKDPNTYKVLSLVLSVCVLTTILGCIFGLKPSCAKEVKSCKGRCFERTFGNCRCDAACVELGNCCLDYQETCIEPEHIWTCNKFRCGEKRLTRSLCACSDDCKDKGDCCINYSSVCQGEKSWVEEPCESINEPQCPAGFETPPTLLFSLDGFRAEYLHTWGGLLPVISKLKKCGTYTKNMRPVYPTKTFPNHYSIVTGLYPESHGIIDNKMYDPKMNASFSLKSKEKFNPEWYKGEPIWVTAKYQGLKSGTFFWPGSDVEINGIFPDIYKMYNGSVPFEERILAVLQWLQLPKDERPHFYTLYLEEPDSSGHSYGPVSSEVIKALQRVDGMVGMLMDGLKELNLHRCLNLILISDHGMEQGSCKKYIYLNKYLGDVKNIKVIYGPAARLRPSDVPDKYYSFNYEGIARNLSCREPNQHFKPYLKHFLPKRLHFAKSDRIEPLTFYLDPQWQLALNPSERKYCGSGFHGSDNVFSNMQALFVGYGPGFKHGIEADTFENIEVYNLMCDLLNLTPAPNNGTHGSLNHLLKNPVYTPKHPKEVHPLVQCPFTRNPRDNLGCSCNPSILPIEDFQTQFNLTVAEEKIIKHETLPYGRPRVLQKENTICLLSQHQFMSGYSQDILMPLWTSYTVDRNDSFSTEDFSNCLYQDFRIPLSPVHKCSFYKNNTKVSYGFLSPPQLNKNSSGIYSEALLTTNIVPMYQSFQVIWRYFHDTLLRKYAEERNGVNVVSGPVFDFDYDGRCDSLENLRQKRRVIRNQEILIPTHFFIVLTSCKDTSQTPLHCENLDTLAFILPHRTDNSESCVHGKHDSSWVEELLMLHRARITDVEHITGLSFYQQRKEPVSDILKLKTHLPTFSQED
Assay: ENPP1 enzymatic assay, cGAMP hydrolysis
Assay type: biochemical

IC50: 142 nM
Substance: QS1
